Experiment [1] deals with T1, AR (AR-full length) in LNCaP cells (Homo sapiens, UniProt P10275, T878A).
T1 construct: the prostate cancer cell line LNCaP (expressing AR-full length); endogenous in cells; host or cells: LNCaP
The experiment in a line: LNCaP Androgen Receptor Imaging Assay (immunofluorescence of endogenous nuclear AR). To be noted: 24 h incubation; for DC50: concentration giving 50% of maximum degradation of AR per curve fit, single experiment or average of two or more; for Dmax: LNCaP, maximum degradation observed, normalized as % of positive control (prior art AR PROTAC at 3 μM). Type of experiment: cell-based. The gist of the method: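 Endogenous nuclear AR level was imaged by immunofluorescence after 24 h compound exposure (12-point dose response, 0.3% DMSO, 37° C./5% CO2) in LNCaP cells. Data were expressed as % of a 3 μM prior-art AR PROTAC control and fitted (bell fit where a hook appeared) to give DC50 and maximum degradation Dmax.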

Experiment [2] deals with T2, AR (L702H) in LNCaP cells (Homo sapiens, UniProt P10275, L702H/T878A).
T2 construct: engineered to introduce the mutation L702H into the AR gene using CRISPR/Cas9; endogenous in cells; host or cells: LNCaP cells edited by CRISPR/Cas9 at the AR gene
The experiment in a line: LNCaP Androgen Receptor L702H Imaging Assay (LNCaP cells engineered by CRISPR/Cas9). To be noted: LNCaP cells with AR L702H mutation, 24 h incubation; for DC50: concentration giving 50% of maximum degradation of AR (L702H) per curve fit; for Dmax: LNCaP, maximum degradation observed, normalized as % of positive control. It counts as cell-based. The gist of the method: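 AR (L702H) degradation, expressed as DC50 and Dmax from curve fits normalized to a positive degrader control, was measured by high-content imaging of anti-AR immunofluorescence. The engineered LNCaP line was dosed over 12 concentrations for 24 h, 0.3% DMSO final, before PFA fixation.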

Our source for the DC50 and Dmax values is patent US20260274832A1, “COMPOUNDS AND THEIR USE IN TREATING CANCER” (ASTRAZENECA AB, priority 2023, published 2026).

T1 sequence (P10275 whole entry T878A): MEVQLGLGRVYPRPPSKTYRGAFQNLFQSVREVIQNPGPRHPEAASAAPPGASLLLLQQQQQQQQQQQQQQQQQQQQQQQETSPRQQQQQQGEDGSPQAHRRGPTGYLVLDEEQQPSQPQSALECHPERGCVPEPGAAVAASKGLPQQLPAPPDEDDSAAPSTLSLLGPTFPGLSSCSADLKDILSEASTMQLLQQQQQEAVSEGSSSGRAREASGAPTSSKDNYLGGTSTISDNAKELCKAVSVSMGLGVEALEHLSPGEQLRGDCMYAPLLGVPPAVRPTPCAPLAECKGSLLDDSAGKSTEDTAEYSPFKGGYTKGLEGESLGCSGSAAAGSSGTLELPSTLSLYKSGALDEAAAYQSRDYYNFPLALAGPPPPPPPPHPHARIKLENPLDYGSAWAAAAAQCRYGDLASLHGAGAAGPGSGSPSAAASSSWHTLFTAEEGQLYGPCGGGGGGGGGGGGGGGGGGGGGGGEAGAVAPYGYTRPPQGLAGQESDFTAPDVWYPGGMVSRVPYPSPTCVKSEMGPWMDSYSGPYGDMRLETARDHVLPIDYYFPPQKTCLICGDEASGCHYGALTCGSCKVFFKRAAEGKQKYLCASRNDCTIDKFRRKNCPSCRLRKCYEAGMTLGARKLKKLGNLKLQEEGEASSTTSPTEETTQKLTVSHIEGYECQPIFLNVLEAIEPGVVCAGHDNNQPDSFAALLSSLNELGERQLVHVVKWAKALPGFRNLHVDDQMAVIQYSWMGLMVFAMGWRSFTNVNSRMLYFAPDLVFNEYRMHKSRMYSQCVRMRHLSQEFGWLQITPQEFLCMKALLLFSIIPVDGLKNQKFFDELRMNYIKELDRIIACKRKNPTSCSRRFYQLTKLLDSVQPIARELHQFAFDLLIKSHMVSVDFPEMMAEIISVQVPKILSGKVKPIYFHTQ
T1 sequence (Q96SW2 whole entry partner): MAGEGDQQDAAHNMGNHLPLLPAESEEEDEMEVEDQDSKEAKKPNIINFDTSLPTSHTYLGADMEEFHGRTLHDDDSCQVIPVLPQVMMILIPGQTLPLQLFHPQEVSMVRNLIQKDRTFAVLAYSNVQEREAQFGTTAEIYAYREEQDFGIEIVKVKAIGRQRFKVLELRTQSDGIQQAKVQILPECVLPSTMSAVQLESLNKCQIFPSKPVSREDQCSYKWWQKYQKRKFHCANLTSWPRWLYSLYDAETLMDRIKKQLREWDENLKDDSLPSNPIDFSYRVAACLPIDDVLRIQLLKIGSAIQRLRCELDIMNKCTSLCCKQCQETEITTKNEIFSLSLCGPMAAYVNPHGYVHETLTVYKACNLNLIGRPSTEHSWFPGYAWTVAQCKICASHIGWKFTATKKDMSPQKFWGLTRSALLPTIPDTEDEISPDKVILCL
T2 sequence (P10275 whole entry L702H/T878A): as the sequence (P10275 whole entry T878A) above, with L702H counted along it
T2 sequence (Q96SW2 whole entry partner): as the sequence (Q96SW2 whole entry partner) above

Consider `N#Cc1c[nH]c2c(N3CCC[C@@H](c4ccc(N5CCC(CN6CCC(n7ccc8c(N9CCC(=O)NC9=O)cccc87)CC6)CC5)cc4)C3)ccc(Cl)c12` [Example 11], for which, in experiment [1], it took 9 nM to reach half-maximal degradation (DC50) and the Dmax (in general, the greatest extent of degradation seen) came out at 102%. Moreover, in experiment [2], it took 18 nM to reach half-maximal degradation (DC50) and the Dmax came to 105%.

In the case of `N#Cc1c[nH]c2c(N3CCC[C@@H](c4ccc(N5CCC(CN6CCN(c7ccc8c(c7)CN(C7CCC(=O)NC7=O)C8=O)CC6)CC5)cc4)C3)ccc(Cl)c12` (stereo partly drawn) [Example 12, 4-Chloro-7-[(3S)-3-{4-[4-({4-[2-(2,6-dioxopiperidin-3-yl)-1-oxo-2,3-dihydro-1H-isoindol-5-yl]piperazin-1-yl}methyl)piperidin-1-yl]phenyl}piperidin-1-yl]-1H-indole-3-carbonitrile], the DC50 (as a rule, the midpoint of the concentration-degradation curve) in experiment [1] is 6 nM; in experiment [2], 12 nM. The Dmax in experiment [1] amounted to 95%; in experiment [2] it was 97%.

As for `Cn1c(C2CCN(CC3CCN(c4ccc([C@@H]5CCCN(c6ccc(Cl)c7c(C#N)c[nH]c67)C5)cc4)CC3)CC2)cc2ccc(N3CCC(=O)NC3=O)cc21` [Example 13, 4-Chloro-7-[(3S)-3-{4-[4-({4-[6-(2,4-dioxo-1,3-diazinan-1-yl)-1-methyl-1H-indol-2-yl]piperidin-1-yl}methyl)piperidin-1-yl]phenyl}piperidin-1-yl]-1H-indole-3-carbonitrile], in experiment [1], the DC50 turned out to be 7 nM and the Dmax stood at 107%. In experiment [2], half-maximal degradation (DC50) was put at 6 nM and the Dmax was 109%.

In the case of `Cn1c(C2CCN(CC3CCN(c4ccc([C@@H]5CCCN(c6ccc(Cl)c7c(C#N)n[nH]c67)C5)cc4)CC3)CC2)cc2ccc(N3CCC(=O)NC3=O)cc21` [Example 14, 4-Chloro-7-[(3S)-3-{4-[4-({4-[6-(2,4-dioxo-1,3-diazinan-1-yl)-1-methyl-1H-indol-2-yl]piperidin-1-yl}methyl)piperidin-1-yl]phenyl}piperidin-1-yl]-1H-indazole-3-carbonitrile], in experiment [1], half-maximal degradation (DC50) was put at 6 nM and the Dmax is 107%. Besides, in experiment [2], half-maximal degradation (DC50) was put at 9 nM and the Dmax turned out to be 112%.

For the molecule `COc1cc(N2CCN(CC3CCN(c4ccc(C5CCN(c6ccc(C)c7c(C#N)c[nH]c67)CC5)cc4)CC3)CC2)cc2c1C(=O)N(C1CCC(=O)NC1=O)C2` (stereo not shown) [Example 15, 7-(4-{4-[4-({4-[2-(2,6-Dioxopiperidin-3-yl)-7-methoxy-1-oxo-2,3-dihydro-1H-isoindol-5-yl]piperazin-1-yl}methyl)piperidin-1-yl]phenyl}piperidin-1-yl)-4-methyl-1H-indole-3-carbonitrile], the results for the DC50 in experiment [1] and in experiment [2] were 9 nM and 24 nM, respectively. The Dmax in experiment [1] amounted to 97%; in experiment [2], 85%.

`COc1cc(N2CCN(CC3CCN(c4ccc(C5CCN(c6ccc(F)c7c(C#N)c[nH]c67)CC5)cc4)CC3)CC2)cc2c1C(=O)N(C1CCC(=O)NC1=O)C2` (stereo not shown) [Example 20, 7-(4-{4-[4-({4-[2-(2,6-Dioxopiperidin-3-yl)-7-methoxy-1-oxo-2,3-dihydro-1H-isoindol-5-yl]piperazin-1-yl}methyl)piperidin-1-yl]phenyl}piperidin-1-yl)-4-fluoro-1H-indole-3-carbonitrile]: in experiment [1], the DC50 is 9 nM and the Dmax came to 94%. Besides, in experiment [2], it took 8 nM to reach half-maximal degradation (DC50) and the Dmax came out at 101%.

For `N#Cc1c[nH]c2c(N3CCC[C@H](c4ccc(N5CCC(CN6CCN(c7ccc8c(c7)CN(C7CCC(=O)NC7=O)C8=O)CC6)CC5)cc4)C3)ccc(Cl)c12` (stereo partly drawn) [Example 21, 4-Chloro-7-[(3R)-3-{4-[4-({4-[2-(2,6-dioxopiperidin-3-yl)-1-oxo-2,3-dihydro-1H-isoindol-5-yl]piperazin-1-yl}methyl)piperidin-1-yl]phenyl}piperidin-1-yl]-1H-indole-3-carbonitrile], in experiment [1], the DC50 came out at 8 nM and the Dmax was determined as 92%. Moreover, in experiment [2], it took 7 nM to reach half-maximal degradation (DC50) and the Dmax is 103%.

In the case of `N#Cc1c[nH]c2c(N3CCC(c4ccc(N5CCN(CC6CCN(c7ccc8c(c7)CN(C7CCC(=O)NC7=O)C8=O)CC6)CC5)cc4)CC3)ccc(F)c12` (stereo not shown) [Example 22], in experiment [1], the DC50 came to 14 nM and the Dmax turned out to be 80%. Moreover, in experiment [2], it took 23 nM to reach half-maximal degradation (DC50) and the Dmax was 81%.

Turning to `N#Cc1c[nH]c2c(N3CCC[C@@H](c4ccc(N5CCC(CN6CCC(n7ccc8c(N9CCC(=O)NC9=O)cccc87)CC6)CC5)cc4)C3)ccc(F)c12` [Example 23, 7-[(3S)-3-{4-[4-({4-[4-(2,4-Dioxo-1,3-diazinan-1-yl)-1H-indol-1-yl]piperidin-1-yl}methyl)piperidin-1-yl]phenyl}piperidin-1-yl]-4-fluoro-1H-indole-3-carbonitrile], in experiment [1], the DC50 amounted to 12 nM and the Dmax was determined as 100%. Also, in experiment [2], the DC50 is 57 nM and the Dmax was 94%.

Turning to `N#Cc1c[nH]c2c(N3CCC[C@@H](c4ccc(N5CCC(CN6CCN(c7ccc8c(c7)CN(C7CCC(=O)NC7=O)C8=O)CC6)CC5)cc4)C3)ccc(F)c12` (stereo partly drawn) [Example 24, 7-[(3S)-3-{4-[4-({4-[2-(2,6-dioxopiperidin-3-yl)-1-oxo-2,3-dihydro-1H-isoindol-5-yl]piperazin-1-yl}methyl)piperidin-1-yl]phenyl}piperidin-1-yl]-4-fluoro-1H-indole-3-carbonitrile], in experiment [1], half-maximal degradation (DC50) was put at 6 nM and the Dmax is 100%. Moreover, in experiment [2], it took 18 nM to reach half-maximal degradation (DC50) and the Dmax turned out to be 83%.

`N#Cc1n[nH]c2c(N3CCC[C@H](c4ccc(N5CCC(CN6CCC(n7ccc8c(N9CCC(=O)NC9=O)cccc87)CC6)CC5)cc4)C3)ccc(Cl)c12` [Example 25, 4-Chloro-7-[(3R)-3-{4-[4-({4-[4-(2,4-dioxo-1,3-diazinan-1-yl)-1H-indol-1-yl]piperidin-1-yl}methyl)piperidin-1-yl]phenyl}piperidin-1-yl]-1H-indazole-3-carbonitrile]: in experiment [1], the DC50 worked out at 6 nM and the Dmax came out at 92%. Further, in experiment [2], half-maximal degradation (DC50) was put at 4 nM and the Dmax is 104%.

On to `N#Cc1c[nH]c2c(N3CCC[C@H](c4ccc(N5CCC(CN6CCC(n7ccc8c(N9CCC(=O)NC9=O)cccc87)CC6)CC5)cc4)C3)ccc(Cl)c12` [Example 26, 4-Chloro-7-[(3R)-3-{4-[4-({4-[4-(2,4-dioxo-1,3-diazinan-1-yl)-1H-indol-1-yl]piperidin-1-yl}methyl)piperidin-1-yl]phenyl}piperidin-1-yl]-1H-indole-3-carbonitrile], for which, in experiment [1], the DC50 amounted to 9 nM and the Dmax is 92%. For the same molecule, in experiment [2], the DC50 was 7 nM and the Dmax worked out at 106%.

With `COc1cc(N2CCN(CCCCOc3ccc(C4CCN(c5ccc(C)c6c(C#N)c[nH]c56)CC4)cc3)CC2)cc2c1C(=O)N(C1CCC(=O)NC1=O)C2` (stereo not shown) [Example 27, 7-{4-[4-(4-{4-[2-(2,6-Dioxopiperidin-3-yl)-7-methoxy-1-oxo-2,3-dihydro-1H-isoindol-5-yl]piperazin-1-yl}butoxy)phenyl]piperidin-1-yl}-4-methyl-1H-indole-3-carbonitrile], in experiment [1], the half-maximal degradation concentration (DC50) turned out to be 14 nM and the Dmax was 99%. In experiment [2], it took 27 nM to reach half-maximal degradation (DC50) and the Dmax stood at 75%.
